Data on 4 molecules can be found in patent US4492693A, “Benzothienylglycyl cephalosporin derivatives” (priority 1983, dated 1985).

Type in all cases: cell-based
One assay relates to H. influ. The experiment in a line: Agar Dilution MIC (Table I). Particulars: read-out: Agar Dilution MIC.
For another assay, the system named is Strep. D. The experiment in a line: Agar Dilution MIC (Table I). Particulars: for MIC: read-out: Agar Dilution MIC; for Agar Dilution MIC: strain 2041. The source says:
A typical and preferred compound provided by this invention is 7-(3-benzothienyl)glycylamido-3-methyl-3-cephem-4-carboxylic acid, the compound illustrated in Example 9. The antibacterial activity of this compound has been determined in standard in vitro agar dilution assays against a variety of gram positive and gram negative microorganism. The following Tables present typical minimum inhibitory concentrations (MIC's) in μg/ml for several compounds of the invention when evaluated against the indicated microorganisms. MIC's for several known compounds are also presented for comparison.
Agar Dilution MIC (μg/ml)
In general terms: In agar dilution, organisms are placed on agar that contains the substance at set levels.

A further assay deals with E. coli. The experiment in a line: Agar Dilution MIC (Table I). As to conditions: Escherichia coli.
In another assay the test system is Klebsiella. The assay is described as follows: Agar Dilution MIC (Table I). Particulars: for MIC: Klebsiella, read-out: Agar Dilution MIC.
Another assay has as its system Haemophilus influenzae. The assay is described as follows: Expanded H. influenzae Spectrum MIC (Table IV).
A further assay deals with Staph. aureus. The assay is described as follows: Agar Dilution MIC (Table I). Particulars: Staphylococcus aureus.
The next assay relates to Strep. A. The experiment in a line: Agar Dilution MIC (Table I). As to conditions: read-out: Agar Dilution MIC.
The test system of the next assay is Bacteroides fragilis. The experiment in a line: Expanded anaerobic Spectrum MIC (Table IV).
For a further assay, the system named is Strep. PN. The experiment in a line: Agar Dilution MIC (Table I). As to conditions: strain PARK.
The next assay concerns Staph. epi. The experiment in a line: Agar Dilution MIC (Table I). Particulars: read-out: Agar Dilution MIC.
Where [1] appears, read: geometric mean over strains, read-out: MIC Geometric Mean.
Where [2] appears, read: mean over strains, read-out: MIC mean.
The mark [3] stands for this setting: strain X1.1, read-out: Agar Dilution MIC.
Setting [4] is: geometric mean over strains, read-out: MIC Geometric mean.

Converted amounts (≈) assume the structure as drawn. Like-named read-outs stand apart in the source and are kept apart here.

For the molecule `CC1(C)S[C@@H]2[C@H](NC(=O)[C@H](N)c3ccccc3)C(=O)N2[C@H]1C(=O)O` [Ampicillin, reference compound], the MIC was found to be 16 µg/mL (≈ 45.8 µM) in the assay with H. influ. (strain 76); 0.5 µg/mL (≈ 1.43 µM) in the assay with H. influ. (strain C.L.); 4 µg/mL (≈ 11.4 µM) in the assay with Strep. D (strain X66); 4 µg/mL (≈ 11.4 µM) against E. coli (strain EC14); 8 µg/mL (≈ 22.9 µM) in the assay on E. coli (strain N10).

`CC1=C(C(=O)O)N2C(=O)[C@@H](NC(=O)[C@H](N)c3ccccc3)[C@H]2SC1` [Cephalexin]: the MIC with Klebsiella was 128 µg/mL (≈ 368 µM); with Haemophilus influenzae (setting [1]) it was 12 µg/mL (≈ 34.5 µM); with Haemophilus influenzae (setting [2]), 22 µg/mL (≈ 63.3 µM); with Haemophilus influenzae (strain 105), 4 µg/mL (≈ 11.5 µM); in the assay on Haemophilus influenzae (strain 112, read-out: MIC), 16 µg/mL (≈ 46.1 µM); in the assay on Staph. aureus (read-out: Agar Dilution MIC), 128 µg/mL (≈ 368 µM). Further, the MIC in the assay on Staph. aureus (setting [3]) turned out to be 4 µg/mL (≈ 11.5 µM); with Strep. A, 0.5 µg/mL (≈ 1.44 µM); in the assay with Strep. D, 128 µg/mL (≈ 368 µM); with Bacteroides fragilis (setting [4]), 34 µg/mL (≈ 97.9 µM); with Bacteroides fragilis (setting [2]), 40 µg/mL (≈ 115 µM); in the assay with Bacteroides fragilis (strain 180-821, read-out: MIC), 16 µg/mL (≈ 46.1 µM). Also, the MIC in the assay with Bacteroides fragilis (strain 10668, read-out: MIC) is greater than 64 µg/mL; in the assay with Bacteroides fragilis (strain 10683, read-out: MIC), greater than 64 µg/mL; in the assay with Bacteroides fragilis (strain 10695, read-out: MIC), 64 µg/mL (≈ 184 µM); with Bacteroides fragilis (strain 10732, read-out: MIC), 32 µg/mL (≈ 92.1 µM); in the assay with Bacteroides fragilis (strain 10750, read-out: MIC) it was 64 µg/mL (≈ 184 µM); in the assay with Bacteroides fragilis (strain 10774, read-out: MIC), greater than 64 µg/mL. In addition, the MIC turned out to be 16 µg/mL (≈ 46.1 µM) with Bacteroides fragilis (strain 10817, read-out: MIC); 16 µg/mL (≈ 46.1 µM) in the assay on Bacteroides fragilis (strain 10837, read-out: MIC); 32 µg/mL (≈ 92.1 µM) with Bacteroides fragilis (strain 107266, read-out: MIC); 16 µg/mL (≈ 46.1 µM) in the assay with Bacteroides fragilis (strain 107268, read-out: MIC); 32 µg/mL (≈ 92.1 µM) in the assay on Bacteroides fragilis (strain 108133, read-out: MIC); 4 µg/mL (≈ 11.5 µM) with E. coli (strain EC14). Moreover, the “Agar Dilution MIC” value with Strep. D was found to be 128 µg/mL.

Take `CC1=C(C(=O)O)N2C(=O)C(NC(=O)C(N)c3cc4ccccc4s3)C2SC1` (centres unmarked) [Compound B, 7-(2-benzothienyl)glycylamido-3-methyl-3-cephem-4-carboxylic acid]: the MIC with Haemophilus influenzae (setting [1]) turned out to be 2 µg/mL (≈ 4.96 µM); in the assay with Haemophilus influenzae (setting [2]) it was 3 µg/mL (≈ 7.44 µM); in the assay on Haemophilus influenzae (strain 102), 16 µg/mL (≈ 39.7 µM); in the assay on Haemophilus influenzae (strain 104, read-out: MIC) it was 2 µg/mL (≈ 4.96 µM); against Haemophilus influenzae (strain 107), 4 µg/mL (≈ 9.91 µM); in the assay on Haemophilus influenzae (strain 109, read-out: MIC) it was 1 µg/mL (≈ 2.48 µM). In addition, the MIC in the assay on Haemophilus influenzae (strain 110) came out at 4 µg/mL (≈ 9.91 µM); in the assay with Haemophilus influenzae (strain 112, read-out: MIC), 8 µg/mL (≈ 19.8 µM); in the assay on Haemophilus influenzae (strain 113, read-out: MIC), 2 µg/mL (≈ 4.96 µM); with Haemophilus influenzae (strain 114, read-out: MIC), 2 µg/mL (≈ 4.96 µM); in the assay with Bacteroides fragilis (setting [4]), 15 µg/mL (≈ 37.2 µM); in the assay with Bacteroides fragilis (setting [2]), 27 µg/mL (≈ 66.9 µM). For the same molecule, the MIC with Bacteroides fragilis (strain 180-821, read-out: MIC) stood at 2 µg/mL (≈ 4.96 µM); in the assay on Bacteroides fragilis (strain 10668, read-out: MIC), 64 µg/mL (≈ 159 µM); with Bacteroides fragilis (strain 10695, read-out: MIC), 16 µg/mL (≈ 39.7 µM); in the assay with Bacteroides fragilis (strain 10732, read-out: MIC), 4 µg/mL (≈ 9.91 µM); with Bacteroides fragilis (strain 10750, read-out: MIC), 64 µg/mL (≈ 159 µM); in the assay on Bacteroides fragilis (strain 10774, read-out: MIC), 64 µg/mL (≈ 159 µM). The MIC in the assay with Bacteroides fragilis (strain 10817, read-out: MIC) was 4 µg/mL (≈ 9.91 µM); with Bacteroides fragilis (strain 10837, read-out: MIC), 16 µg/mL (≈ 39.7 µM); with Bacteroides fragilis (strain 107266, read-out: MIC), 4 µg/mL (≈ 9.91 µM); in the assay on Bacteroides fragilis (strain 107268, read-out: MIC) it was 16 µg/mL (≈ 39.7 µM); with Bacteroides fragilis (strain 108133, read-out: MIC) it was 16 µg/mL (≈ 39.7 µM).

Regarding `CC1=C(C(=O)O)N2C(=O)C(NC(=O)[C@@H](N)c3csc4c(F)cccc34)C2SC1` (stereo partly drawn) [Ex. 21, L-7-(7-Fluoro-3-benzothienyl)glycylamido-3-methyl-3-cephem-4-carboxylic acid], the MIC in the assay with Klebsiella was determined as 128 µg/mL (≈ 304 µM); in the assay on Klebsiella (strain X26) it was 64 µg/mL (≈ 152 µM); with Strep. PN, 16 µg/mL (≈ 38 µM); in the assay on H. influ. (strain 76), 8 µg/mL (≈ 19 µM); in the assay on H. influ. (strain C.L.), 64 µg/mL (≈ 152 µM); with Staph. epi it was 128 µg/mL (≈ 304 µM). Also, the MIC in the assay with Staph. epi (strain 222) came to 64 µg/mL (≈ 152 µM); in the assay with Staph. aureus (read-out: Agar Dilution MIC, strain S13E) it was 128 µg/mL (≈ 304 µM); in the assay on Staph. aureus (strain V41, read-out: Agar Dilution MIC) it was 128 µg/mL (≈ 304 µM); in the assay with Staph. aureus (setting [3]), 32 µg/mL (≈ 75.9 µM); in the assay with Staph. aureus (strain X400, read-out: Agar Dilution MIC), 128 µg/mL (≈ 304 µM); in the assay with Strep. A (strain C203), 8 µg/mL (≈ 19 µM). The MIC in the assay on Strep. D, against E. coli (strain EC14), in the assay on E. coli (strain N10) and against E. coli (strain TEM) was 128 µg/mL (≈ 304 µM) throughout. The “Agar Dilution MIC” value in the assay with Klebsiella (strain X68) and in the assay on Strep. D was 128 µg/mL each time.
